The nature of series [1]: ASSAY (III) ThT fibrillation assay for physical stability. The class given is physicochemical. From the text: Assay (III)—ThT Fibrillation Assays for the Assessment of Physical Stability of Protein Formulations Low physical stability of a polypeptide may lead to amyloid fibril formation, which is observed as well-ordered, thread-like macromolecular structures in the sample eventually resulting in gel formation. This has traditionally been measured by visual inspection of the sample. However, that kind of measurement is very subjective and depending on the observer. Therefore, the application of a small molecule indicator probe is much more advantageous. Thioflavin T (ThT) is such a probe and has a distinct fluorescence signature when binding to fibrils [Naiki et al. (1989) Anal. […] LeVine (1999) Methods. Enzymol. […], 274-284]. The time course for fibril formation can be described by a sigmoidal curve with the following expression [Nielsen et al. (2001) Biochemistry 40, 6036-6046]; […] Here, F is the ThT fluorescence at the time t. The constant t0 is the time needed to reach 50% of maximum fluorescence. […] Few of those intermediates nucleate to form a template onto which further intermediates may assembly and the fibrillation proceeds. The lag-time corresponds to the interval in which the critical mass of nucleus is built up and the apparent rate constant is the rate with which the fibril itself is formed. Sample Preparation Samples were prepared freshly before each assay. Each sample composition is described in each example. The pH of the sample was adjusted to the desired value using appropriate amounts of concentrated NaOH and HClO4 or HCl. Thioflavin T was added to the samples from a stock solution in H2O to a final concentration of 1 μM. Sample aliquots of 200 μl were placed in a 96 well microtiter plate (Packard OptiPlate™96, white polystyrene). Usually, four or eight replica of each sample (corresponding to one test condition) were placed in one column of wells. The plate was sealed with Scotch Pad (Qiagen). Incubation and Fluorescence Measurement Incubation at given temperature, shaking and measurement of the ThT fluorescence emission were done in a Fluoroskan Ascent FL fluorescence platereader or Varioskan platereader (Thermo Labsystems). The temperature was adjusted to 37° C. The orbital shaking was adjusted to 960 rpm with an amplitude of 1 mm in all the presented data. Fluorescence measurement was done using excitation through a 444 nm filter and measurement of emission through a 485 nm filter. Each run was initiated by incubating the plate at the assay temperature for 10 min. The plate was measured every 20 minutes for a desired period of time. Between each measurement, the plate was shaken and heated as described. Data Handling The measurement points were saved in Microsoft Excel format for further processing and curve drawing and fitting was performed using GraphPad Prism. The background emission from ThT in the absence of fibrils was negligible. The data points are typically a mean of four or eight samples and shown with standard deviation error bars. Only data obtained in the same experiment (i.e. samples on the same plate) are presented in the same graph ensuring a relative measure of fibrillation between experiments. The data set may be fitted to Eq. […] However, since full sigmodial curves in this case are not always achieved during the measurement time, the degree of fibrillation is expressed as ThT fluorescence tabulated as the mean of the samples and shown with the standard deviation at various time points. Measurement of Initial and Final Concentrations The polypeptide concentration in each of the tested formulations were measured both before application in the ThT fibrillation assay (“Initial”) and after completion of the ThT fibrillation (“After ThT assay”). Concentrations were determined by reverse HPLC methods using a pramlintide standard as a reference. Before measurement after completion 150 μl was collected from each of the replica and transferred to an Eppendorf tube. These were centrifuged at 30000 G for 40 mins. […]

Series [2] can be described thus: ASSAY (IV) determination of solubility. The class given is physicochemical. As to the method: Assay (IV)—Determination of Solubility
The polypeptide was dissolved in water at −500 nmol/ml and mixed 1:1 with a series of buffers (100 mM glycylglycine pH 3.0, 100 mM glycylglycine pH 4.0, 100 mM glycylglycine pH 5.0, 100 mM bistrispropane pH 6.0, 100 mM bistrispropane pH 6.5, 100 mM bistrispropane pH 7.0, 100 mM bistrispropane pH 7.5, 100 mM bistrispropane pH 8.0). After 18 hours at room temperature the samples were centrifuged and the polypeptide concentration determined by UPLC.

Series [3] has as its target T1, human amylin 3(a) receptor (human calcitonin receptor + RAMP-3) in BHK570 cells (Homo sapiens, UniProt O60896+P30988).
T1 construct: expressed in transfected cells
Description: ASSAY (II)a functional assay, human amylin receptor (CRE luciferase). The series is classed as cell-based. An excerpt:
1. Luciferase Assay Outline
Activation of calcitonin and amylin (coexpression of calcitonin receptor and receptor activity modifying proteins (RAMP)) receptors lead to increased intracellular concentrations of cAMP. Consequently, transcription is activated by promoters containing multiple copies of the cAMP response element (CRE). It is thus possible to measure amylin activity by the use of a CRE luciferase reporter gene introduced into BHK cells also expressing calcitonin or amylin receptors.
2. Construction of Calcitonin (a)- and Amylin 3(a)-Receptor/CRE-Luc Cell Line.
The cell line was further transfected with RAMP-3, using standard methods. This turns the calcitonin receptor into an amylin 3(a) receptor. Methotrexate, Neomycin, and Hygromycin are selection markers for luciferase, the calcitonin receptor, and RAMP-3, respectively.
To perform activity assays, BHK calcitonin (a) receptor- or amylin 3(a)-receptor/CRE-luc cells were seeded in white 96 well culture plates at a density of about 20.000 cells/well. […] After incubation overnight at 37° C. and 5% CO2, the growth medium was replaced by 50 μl/well assay medium (DMEM (without phenol red), Glutamax™, 10% FBS, and 10 mM Hepes, pH 7.4). Further, 50 μl/well of standard or sample in assay buffer were added. After 3 hours incubation at 37° C. and 5% CO2, the assay medium with standard or sample were removed and replaced by 100 μl/well PBS. Further, 100 μl/well LucLite™ was added. The plates were sealed and incubated at room temperature for 30 minutes. Finally, luminescence was measured on a TopCounter (Packard) in SPC (single photon counting) mode.

In series [4] the target is T2, human amylin receptor (membranes from Amylin 3(a)/CRE-luc cells) (Homo sapiens, UniProt O60896+P30988).
T2 construct: expressed in transfected cells
T2 sequence (P30988 25-474): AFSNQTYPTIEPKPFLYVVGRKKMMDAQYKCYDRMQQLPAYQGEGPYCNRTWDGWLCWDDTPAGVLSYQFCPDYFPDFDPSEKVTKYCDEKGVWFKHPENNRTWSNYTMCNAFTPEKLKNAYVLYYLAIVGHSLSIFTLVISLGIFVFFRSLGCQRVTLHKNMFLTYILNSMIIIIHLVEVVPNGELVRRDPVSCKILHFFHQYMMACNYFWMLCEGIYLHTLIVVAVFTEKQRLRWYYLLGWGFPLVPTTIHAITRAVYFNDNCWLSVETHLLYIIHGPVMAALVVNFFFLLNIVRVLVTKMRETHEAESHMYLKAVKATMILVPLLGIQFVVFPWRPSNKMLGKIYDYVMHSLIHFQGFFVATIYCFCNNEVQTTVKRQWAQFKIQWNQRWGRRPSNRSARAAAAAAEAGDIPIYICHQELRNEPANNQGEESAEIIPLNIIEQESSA
T2 sequence (O60896 24-148 partner): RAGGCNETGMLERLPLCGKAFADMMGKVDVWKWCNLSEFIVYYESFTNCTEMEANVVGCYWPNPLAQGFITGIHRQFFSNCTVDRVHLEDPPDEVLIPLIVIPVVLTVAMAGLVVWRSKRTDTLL
In words: ASSAY (V) binding to the human amylin receptor (SPA, 125I-rat amylin).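 Further: competition binding of cell membranes (35 ng/µL) mixed with SPA beads in 384-well plates at 40 µL total volume, read by scintillation counting.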

[5] abbreviates: bistrispropane buffer, pH 6.5, read-out: Solubility pH 6.5 Concentration.
Setting [6] is: bistrispropane buffer, pH 7.5, read-out: Solubility pH 7.5 Concentration.
Where [7] appears, read: bistrispropane buffer, pH 6.0, read-out: Solubility pH 6.0 Concentration.
Where [8] appears, read: bistrispropane buffer, pH 7.0, read-out: Solubility pH 7.0 Concentration.
Where [9] appears, read: bistrispropane buffer, pH 8.0, read-out: Solubility pH 8.0 Concentration.
The mark [10] stands for this setting: glycylglycine buffer, pH 3.0, read-out: Solubility pH 3.0 Concentration.
The mark [11] stands for this setting: glycylglycine buffer, pH 4.0, read-out: Solubility pH 4.0 Concentration.
Setting [12] is: glycylglycine buffer, pH 5.0, read-out: Solubility pH 5.0 Concentration.
Setting [13] is: hCTR funct. EC50 divided by hAmylin-R funct. EC50.
Setting [14] is: hCTR funct. EC50 over hAmylin-R funct. EC50.
Where [15] appears, read: human functional selectivity: hCTR funct. EC50 / hAmylin-R funct. EC50.
[16] abbreviates: Table 5, selectivity, hCTR bind IC50 / hAmylin-R bind IC50.
[17] abbreviates: Table 7, human binding selectivity, included for comparison.

Read-outs that look alike come from different tables or passages of the source. Numbered stars: 1 amine (or outer) side, 2 acyl side, 3 side chain; on linkers, the order of the positions; unused ones are H or OH. Bridge positions count the residues as written; N and C are the ends. Peptide text beside a SMILES is read from it. * marks the point of attachment. C20 diacid = O=C(O)CCCCCCCCCCCCCCCCCCC(=O)*; γGlu = O=C(O)[C@H](CCC(=O)[*:2])N[*:1]

On to `CC[C@H](C)[C@H](NC(=O)[C@H](C)NC(=O)CNC(=O)[C@H](Cc1ccccc1)NC(=O)[C@H](CC(N)=O)NC(=O)[C@@H]1CCCN1C(=O)[C@H](CO)NC(=O)[C@H](CO)NC(=O)[C@H](Cc1c[nH]cn1)NC(=O)[C@H](CCCNC(=N)N)NC(=O)[C@H](CC(C)C)NC(=O)[C@H](Cc1ccccc1)NC(=O)[C@H](CCC(=O)O)NC(=O)[C@H](C)NC(=O)[C@H](CC(C)C)NC(=O)[C@H](CCCNC(=N)N)NC(=O)[C@H](CCC(N)=O)NC(=O)[C@@H](NC(=O)[C@H](C)NC(=O)[C@@H]1CSSC[C@H](NC(=O)[C@H](CCCCN)NC(=O)CC[C@H](NC(=O)CCCCCCCCCCCCCCCCCCC(=O)O)C(=O)O)C(=O)N[C@@H](CC(N)=O)C(=O)N[C@@H]([C@@H](C)O)C(=O)N[C@@H](C)C(=O)N[C@@H]([C@@H](C)O)C(=O)N1)[C@@H](C)O)C(=O)N1CCC[C@H]1C(=O)N[C@@H](CO)C(=O)N[C@@H](CO)C(=O)N[C@H](C(=O)N[C@@H](CC(N)=O)C(=O)N[C@H](C(=O)NCC(=O)N[C@@H](CO)C(=O)N[C@@H](CC(N)=O)C(=O)N[C@H](C(=O)N[C@@H](Cc1ccc(O)cc1)C(N)=O)[C@@H](C)O)C(C)C)[C@@H](C)O` [Example 9], for which, in series [1], the “ThT pH 4.0 lag time (h)” value amounted to 19 h. Also, the solubility at 18 h in series [2] (setting [5]), in series [2] (setting [6]), in series [2] (setting [7]), in series [2] (setting [8]), in series [2] (setting [9]) and in series [2] (setting [10]) was at least 200 µM in each case. Besides, the solubility at 18 h in series [2] (setting [11]) and in series [2] (setting [12]) was at least 200 µM in each case. Besides, the “Ratio hCT/hAmylin funct.” value in series [3] (setting [13]), in series [3] (setting [14]) and in series [3] (setting [15]) was 7.4 in each case. Moreover, the “Ratio hCT/hAmylin binding” value in series [4] (setting [16]) and in series [4] (setting [17]) was 8.0 throughout.
As to `CC[C@H](C)[C@H](NC(=O)[C@H](C)NC(=O)CNC(=O)[C@H](Cc1ccccc1)NC(=O)[C@H](CC(N)=O)NC(=O)[C@@H]1CCCN1C(=O)[C@H](CO)NC(=O)[C@H](CO)NC(=O)[C@H](Cc1c[nH]cn1)NC(=O)[C@H](CCCNC(=N)N)NC(=O)[C@H](CC(C)C)NC(=O)[C@H](Cc1ccccc1)NC(=O)[C@H](CCC(=O)O)NC(=O)[C@H](C)NC(=O)[C@H](CC(C)C)NC(=O)[C@H](CCCNC(=N)N)NC(=O)[C@H](CCC(N)=O)NC(=O)[C@@H](NC(=O)[C@H](C)NC(=O)[C@@H]1CSSC[C@H](NC(=O)[C@H](CCCCN)NC(=O)CC[C@H](NC(=O)CC[C@H](NC(=O)CCCCCCCCCCCCCCCCCCC(=O)O)C(=O)O)C(=O)O)C(=O)N[C@@H](CC(N)=O)C(=O)N[C@@H]([C@@H](C)O)C(=O)N[C@@H](C)C(=O)N[C@@H]([C@@H](C)O)C(=O)N1)[C@@H](C)O)C(=O)N1CCC[C@H]1C(=O)N[C@@H](CO)C(=O)N[C@@H](CO)C(=O)N[C@H](C(=O)N[C@@H](CC(N)=O)C(=O)N[C@H](C(=O)NCC(=O)N[C@@H](CO)C(=O)N[C@@H](CC(N)=O)C(=O)N[C@H](C(=O)N1CCC[C@H]1C(N)=O)[C@@H](C)O)C(C)C)[C@@H](C)O` [Example 14] ({C20 diacid-γGlu-γGlu}-KCNTATCATQRLAEFLRHSSPNFGAIPSSTNVGSNTP-NH2; disulfide 2-7), the “ThT pH 4.0 lag time (h)” value in series [1] is recorded as 45 h. Further, the solubility at 18 h in series [2] (setting [5]), in series [2] (setting [6]), in series [2] (setting [7]), in series [2] (setting [8]), in series [2] (setting [9]) and in series [2] (setting [10]) was at least 200 µM each time. For the same molecule, the solubility at 18 h in series [2] (setting [11]) and in series [2] (setting [12]) was at least 200 µM in each case. The “Ratio hCT/hAmylin funct.” value in series [3] (hCTR funct. EC50 / hAmylin-R funct. EC50), in series [3] (setting [13]), in series [3] (setting [14]) and in series [3] (setting [15]) was 1.6 each time. The “Ratio hCT/hAmylin binding” value in series [4] (setting [16]) and in series [4] (setting [17]) was 2.2 in each case.

These data come from US9023789B2, “Amylin analogs and pharmaceutical compositions thereof” (Novo Nordisk A/S, priority 2012, dated 2015).
